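1) Cells in 96-well plates. 2) Compound, 48 h, 5 concentrations. 3) Linear interpolation between surrounding doses. 4) Unreached endpoint = highest concentration. TGI marks complete inhibition of growth.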
Key:
Assay in all cases: growth of human tumour cells (NCI), 48 h
786-0 renal = test system: 786-0 renal
UACC-257 melanoma = test system: UACC-257 melanoma
SK-OV-3 ovarian = test system: SK-OV-3 ovarian
HS 578T breast = test system: HS 578T breast
MCF7 breast = test system: MCF7 breast
MDA-MB-435 = test system: MDA-MB-435
HOP-62 NSCLC = test system: HOP-62 NSCLC
BT-549 breast = test system: BT-549 breast
OVCAR-3 ovarian = test system: OVCAR-3 ovarian
MDA-MB-231 breast = test system: MDA-MB-231 breast
HT29 colon = test system: HT29 colon
SNB-19 CNS = test system: SNB-19 CNS
SW-620 colon = test system: SW-620 colon
HOP-92 NSCLC = test system: HOP-92 NSCLC
RXF 393 renal = test system: RXF 393 renal
IGROV1 ovarian = test system: IGROV1 ovarian
MDA-N = test system: MDA-N
NCI-H522 lung = test system: NCI-H522 lung
KM12 colon = test system: KM12 colon
HL-60(TB) leukemia = test system: HL-60(TB) leukemia
TK-10 renal = test system: TK-10 renal
A549 NSCLC = test system: A549 NSCLC
SK-MEL-28 melanoma = test system: SK-MEL-28 melanoma
PC-3 prostate = test system: PC-3 prostate
SK-MEL-5 melanoma = test system: SK-MEL-5 melanoma
MALME-3M melanoma = test system: MALME-3M melanoma
HCT-116 colon = test system: HCT-116 colon
SF-539 CNS = test system: SF-539 CNS
NCI-H23 lung = test system: NCI-H23 lung
NCI-H460 lung = test system: NCI-H460 lung
HCT-15 colon = test system: HCT-15 colon
LOX IMVI melanoma = test system: LOX IMVI melanoma
SK-MEL-2 melanoma = test system: SK-MEL-2 melanoma
MOLT-4 leukemia = test system: MOLT-4 leukemia
OVCAR-4 ovarian = test system: OVCAR-4 ovarian
OVCAR-8 ovarian = test system: OVCAR-8 ovarian
NCI/ADR-RES ovarian = test system: NCI/ADR-RES ovarian
SN12C renal = test system: SN12C renal
CAKI-1 renal = test system: CAKI-1 renal
SF-268 CNS = test system: SF-268 CNS
DU-145 prostate = test system: DU-145 prostate
RPMI-8226 leukemia = test system: RPMI-8226 leukemia
UACC-62 melanoma = test system: UACC-62 melanoma
SF-295 CNS = test system: SF-295 CNS
ACHN renal = test system: ACHN renal
A498 renal = test system: A498 renal
M14 melanoma = test system: M14 melanoma
U251 CNS = test system: U251 CNS
UO-31 renal = test system: UO-31 renal
COLO 205 colon = test system: COLO 205 colon
CCRF-CEM leukemia = test system: CCRF-CEM leukemia
EKVX NSCLC = test system: EKVX NSCLC
OVCAR-5 ovarian = test system: OVCAR-5 ovarian
T-47D breast = test system: T-47D breast
NCI-H226 lung = test system: NCI-H226 lung
HCC-2998 colon = test system: HCC-2998 colon
K-562 leukemia = test system: K-562 leukemia
SNB-75 CNS = test system: SNB-75 CNS

## CC(=O)N(C(C)=O)n1nc2c(n1)C(=O)c1ccccc1C2=O
786-0 renal
  TGI: > 100 µM
UACC-257 melanoma
  TGI: > 100 µM
SK-OV-3 ovarian
  TGI: > 100 µM
HS 578T breast
  TGI: > 100 µM
MCF7 breast
  TGI: > 100 µM
MDA-MB-435
  TGI: > 100 µM
HOP-62 NSCLC
  TGI: > 100 µM
BT-549 breast
  TGI: > 100 µM
OVCAR-3 ovarian
  TGI: > 100 µM
MDA-MB-231 breast
  TGI: > 100 µM
HT29 colon
  TGI: > 100 µM
SNB-19 CNS
  TGI: > 100 µM
SW-620 colon
  TGI: > 100 µM
HOP-92 NSCLC
  TGI: > 100 µM
RXF 393 renal
  TGI: > 100 µM
IGROV1 ovarian
  TGI: > 100 µM
MDA-N
  TGI: > 100 µM
NCI-H522 lung
  TGI: > 100 µM
KM12 colon
  TGI: > 100 µM
HL-60(TB) leukemia
  TGI: > 100 µM
TK-10 renal
  TGI: > 100 µM
A549 NSCLC
  TGI: > 100 µM
SK-MEL-28 melanoma
  TGI: > 100 µM
PC-3 prostate
  TGI: > 100 µM
SK-MEL-5 melanoma
  TGI: > 100 µM
MALME-3M melanoma
  TGI: > 100 µM
HCT-116 colon
  TGI: > 100 µM
SF-539 CNS
  TGI: > 100 µM
NCI-H23 lung
  TGI: > 100 µM
NCI-H460 lung
  TGI: > 100 µM
HCT-15 colon
  TGI: > 100 µM
LOX IMVI melanoma
  TGI: > 100 µM
SK-MEL-2 melanoma
  TGI: > 100 µM
MOLT-4 leukemia
  TGI: > 100 µM
OVCAR-4 ovarian
  TGI: > 100 µM
OVCAR-8 ovarian
  TGI: > 100 µM
NCI/ADR-RES ovarian
  TGI: > 100 µM
SN12C renal
  TGI: > 100 µM
CAKI-1 renal
  TGI: > 100 µM
SF-268 CNS
  TGI: > 100 µM
DU-145 prostate
  TGI: > 100 µM
RPMI-8226 leukemia
  TGI: > 100 µM
UACC-62 melanoma
  TGI: > 100 µM
SF-295 CNS
  TGI: > 100 µM
ACHN renal
  TGI: > 100 µM
A498 renal
  TGI: > 100 µM
M14 melanoma
  TGI: > 100 µM
U251 CNS
  TGI: > 100 µM
UO-31 renal
  TGI: > 100 µM
COLO 205 colon
  TGI: > 100 µM
CCRF-CEM leukemia
  TGI: > 100 µM
EKVX NSCLC
  TGI: > 100 µM
OVCAR-5 ovarian
  TGI: > 100 µM
T-47D breast
  TGI: > 100 µM

## NC(=S)N/N=C1\CCCCC1C(O)(C(F)(F)Cl)C(F)(F)Cl (stereo not given)
786-0 renal
  TGI: > 10 µM
UACC-257 melanoma
  TGI: > 10 µM
NCI-H226 lung
  TGI: > 10 µM
SK-OV-3 ovarian
  TGI: > 10 µM
HS 578T breast
  TGI: > 10 µM
MCF7 breast
  TGI: > 10 µM
MDA-MB-435
  TGI: > 10 µM
HOP-62 NSCLC
  TGI: > 10 µM
BT-549 breast
  TGI: > 10 µM
OVCAR-3 ovarian
  TGI: > 10 µM
MDA-MB-231 breast
  TGI: > 10 µM
HT29 colon
  TGI: > 10 µM
SNB-19 CNS
  TGI: > 10 µM
SW-620 colon
  TGI: > 10 µM
HOP-92 NSCLC
  TGI: > 10 µM
HCC-2998 colon
  TGI: > 10 µM
RXF 393 renal
  TGI: > 10 µM
IGROV1 ovarian
  TGI: > 10 µM
MDA-N
  TGI: > 10 µM
NCI-H522 lung
  TGI: > 10 µM
KM12 colon
  TGI: > 10 µM
HL-60(TB) leukemia
  TGI: > 10 µM
TK-10 renal
  TGI: > 10 µM
A549 NSCLC
  TGI: > 10 µM
SK-MEL-28 melanoma
  TGI: > 10 µM
PC-3 prostate
  TGI: > 10 µM
SK-MEL-5 melanoma
  TGI: > 10 µM
MALME-3M melanoma
  TGI: > 10 µM
HCT-116 colon
  TGI: > 10 µM
SF-539 CNS
  TGI: > 10 µM
NCI-H23 lung
  TGI: > 10 µM
K-562 leukemia
  TGI: > 10 µM
NCI-H460 lung
  TGI: > 10 µM
HCT-15 colon
  TGI: > 10 µM
LOX IMVI melanoma
  TGI: > 10 µM
SK-MEL-2 melanoma
  TGI: > 10 µM
MOLT-4 leukemia
  TGI: > 10 µM
OVCAR-4 ovarian
  TGI: > 10 µM
OVCAR-8 ovarian
  TGI: > 10 µM
NCI/ADR-RES ovarian
  TGI: > 10 µM
SN12C renal
  TGI: > 10 µM
SF-268 CNS
  TGI: > 10 µM
SNB-75 CNS
  TGI: > 10 µM
DU-145 prostate
  TGI: > 10 µM
RPMI-8226 leukemia
  TGI: > 10 µM
UACC-62 melanoma
  TGI: > 10 µM
SF-295 CNS
  TGI: > 10 µM
ACHN renal
  TGI: > 10 µM
A498 renal
  TGI: > 10 µM
M14 melanoma
  TGI: > 10 µM
U251 CNS
  TGI: > 10 µM
COLO 205 colon
  TGI: > 10 µM
CCRF-CEM leukemia
  TGI: > 10 µM
EKVX NSCLC
  TGI: > 10 µM
OVCAR-5 ovarian
  TGI: > 10 µM
T-47D breast
  TGI: > 10 µM
